This passage reports TGI results from PubChem BioAssay (NCI).

Molecules are shown by their SMILES.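 Briefly, cells in 96-well plates were exposed to five compound concentrations for 48 h, and endpoints were estimated by linear interpolation. TGI: total growth inhibition.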 Where a SMILES comes first, the peptide text is derived from it. The star is where a group is joined. Boc = CC(C)(C)OC(=O)*; OBn = c1ccc(CO*)cc1; Bn = c1ccc(C*)cc1 Bounds are passed on as bounds.

Test systems include OVCAR-5 ovarian; COLO 205 colon; SF-268 CNS; MOLT-4 leukemia; UACC-257 melanoma; OVCAR-4 ovarian; OVCAR-3 ovarian; MALME-3M melanoma; HT29 colon; SR leukemia.
Holding throughout (assay): NCI-60 cell line screen, 48 h

As for `CCCCc1ccc(Nc2nc(N)c3[nH]cnc3n2)cc1`, the TGI with OVCAR-5 ovarian is 73.5 µM; with COLO 205 colon, 38.1 µM; in the test on SF-268 CNS, 32.8 µM; in the test on MOLT-4 leukemia it was 40.2 µM; in the test with UACC-257 melanoma it was 47.4 µM; in the test with OVCAR-4 ovarian, 60.4 µM. Besides, the TGI in the test with OVCAR-3 ovarian came to 51.9 µM; in the test with MALME-3M melanoma it was 38.1 µM; in the test on HT29 colon it was 28.3 µM.
Turning to `COc1c2c(cc3oc(=O)ccc13)OC(C)(C)C=C2`, the TGI with COLO 205 colon was 73.6 µM; with SF-268 CNS, over 125 µM; in the test on MOLT-4 leukemia, 59.1 µM; in the test on UACC-257 melanoma, 85.2 µM; in the test on OVCAR-3 ovarian, over 125 µM; in the test on SR leukemia, 44.6 µM. The TGI in the test on MALME-3M melanoma is 87.8 µM; in the test with HT29 colon, over 125 µM.
With `O=C1CCCn2c3ccccc3c3ccnc1c32`, the TGI with OVCAR-5 ovarian was over 100 µM; in the test with COLO 205 colon, over 100 µM; in the test with SF-268 CNS it was over 100 µM; in the test on MOLT-4 leukemia it was over 100 µM; with UACC-257 melanoma, over 56.1 µM; with OVCAR-4 ovarian, over 100 µM. Moreover, the TGI is over 100 µM in the test with OVCAR-3 ovarian, over 100 µM in the test with MALME-3M melanoma and over 56.1 µM with HT29 colon.
Consider `c1ccc(C[P+]2(c3ccccc3)CCCCC2)cc1`, for which the TGI in the test with OVCAR-5 ovarian, in the test on COLO 205 colon, with MOLT-4 leukemia, in the test with UACC-257 melanoma, with OVCAR-4 ovarian and in the test on OVCAR-3 ovarian was over 100 µM each time. For the same compound, the TGI with SR leukemia, in the test with MALME-3M melanoma and with HT29 colon was over 100 µM each time.
Regarding `O=C(O)CC(Cc1ccccc1)C(=O)O` (stereo not drawn), the TGI with OVCAR-5 ovarian, in the test with COLO 205 colon, in the test on SF-268 CNS, with MOLT-4 leukemia, in the test with UACC-257 melanoma and in the test with OVCAR-4 ovarian was over 100 µM in each case. For the same compound, the TGI in the test on OVCAR-3 ovarian, in the test with MALME-3M melanoma and with HT29 colon was over 100 µM in each case.
Take `CC1(C)OC2C(CO)OC(/N=C(\NC#N)Oc3ccccc3)C2O1` (stereo not drawn): the TGI in the test on OVCAR-5 ovarian, with COLO 205 colon, in the test with SF-268 CNS, in the test with MOLT-4 leukemia, with UACC-257 melanoma and in the test on OVCAR-4 ovarian was over 100 µM in each case. In addition, the TGI in the test with OVCAR-3 ovarian, in the test with SR leukemia and in the test on HT29 colon was over 100 µM throughout.
As for `NC1=CN2c3ccccc3N(CC(=O)N3CCOCC3)C2C=C1` (stereo not drawn), the TGI in the test with OVCAR-5 ovarian, in the test with COLO 205 colon, in the test on SF-268 CNS, with MOLT-4 leukemia, in the test on UACC-257 melanoma and in the test on OVCAR-4 ovarian was over 100 µM each time. In addition, the TGI in the test on SR leukemia, in the test with MALME-3M melanoma and in the test on HT29 colon was over 100 µM each time.
Turning to `NCCCCN(CCCN)C(=O)OCc1ccccc1`, the TGI in the test on OVCAR-5 ovarian, with COLO 205 colon, in the test with SF-268 CNS, in the test on MOLT-4 leukemia, with UACC-257 melanoma and with OVCAR-4 ovarian was over 100 µM in each case. In addition, the TGI with OVCAR-3 ovarian, in the test with SR leukemia and in the test on HT29 colon was over 100 µM in each case.
In the case of `CS(=O)(=O)c1nc(-c2cc3c(c(S(C)(=O)=O)n2)CCC3)cc2c1CCC2`, the TGI with OVCAR-5 ovarian, in the test on COLO 205 colon, in the test with SF-268 CNS, with MOLT-4 leukemia, in the test with UACC-257 melanoma and with OVCAR-4 ovarian was over 100 µM in each case. In addition, the TGI with OVCAR-3 ovarian and in the test with HT29 colon was over 100 µM throughout.
As to `Cc1ccc(N=c2oc3c(ccc4ccccc43)nc2Nc2ccc(C)cc2)cc1`, the TGI with OVCAR-5 ovarian, with COLO 205 colon, with SF-268 CNS, in the test on MOLT-4 leukemia, in the test with UACC-257 melanoma and in the test on OVCAR-4 ovarian was over 100 µM each time. For the same compound, the TGI with SR leukemia, in the test on MALME-3M melanoma and with HT29 colon was over 100 µM in each case.
`COC(CO[Si](C)(C)N[Si](C)(C)OCC(OC)c1ccccc1)c1ccccc1` (stereo not drawn): the TGI in the test on OVCAR-5 ovarian, with COLO 205 colon, in the test on MOLT-4 leukemia, in the test on UACC-257 melanoma, with OVCAR-4 ovarian and in the test on OVCAR-3 ovarian was over 100 µM in each case. Also, in the test with SR leukemia, the TGI is over 100 µM.
On to `O=C1N2CCN=C2c2ccccc2C1(O)c1ccccc1` (stereo not drawn), for which the TGI in the test on OVCAR-5 ovarian, in the test with COLO 205 colon, in the test with SF-268 CNS, in the test on MOLT-4 leukemia, in the test on UACC-257 melanoma and in the test on OVCAR-4 ovarian was over 100 µM each time. Further, the TGI with SR leukemia and in the test with HT29 colon was over 100 µM in each case.
For `CC(=O)Nc1ccc(S(=O)(=O)/N=c2/sc(S(N)(=O)=O)nn2C)cc1`, the TGI in the test with OVCAR-5 ovarian, in the test with COLO 205 colon, in the test with SF-268 CNS, in the test with MOLT-4 leukemia, in the test on OVCAR-4 ovarian and in the test with OVCAR-3 ovarian was over 100 µM in each case. Further, the TGI in the test on SR leukemia, with MALME-3M melanoma and with HT29 colon was over 100 µM throughout.
Consider `CCOC(=O)n1c2ccccc2c2c(O)c(OC)c3c(c21)C(=O)NC3=O`, for which the TGI in the test on OVCAR-5 ovarian is over 100 µM; in the test on COLO 205 colon it was 52.2 µM; with MOLT-4 leukemia, over 100 µM; with UACC-257 melanoma, over 100 µM; in the test with OVCAR-4 ovarian, over 100 µM; in the test with OVCAR-3 ovarian it was over 100 µM. Also, the TGI in the test with SR leukemia stood at 87.9 µM; in the test on MALME-3M melanoma, 95.4 µM; with HT29 colon it was 84.3 µM.
Regarding `CC(C)CC(NC(=O)C(CCC(=O)OCc1ccccc1)NC(=O)OC(C)(C)C)C(=O)NC(COCc1ccccc1)C(=O)NC(Cc1ccccc1)C(=O)O` (stereo not drawn) (Boc-E(OBn)LS(Bn)F-OH; configuration not given here), the TGI in the test with OVCAR-5 ovarian, in the test on COLO 205 colon, in the test on MOLT-4 leukemia, in the test with UACC-257 melanoma, with SR leukemia and in the test with MALME-3M melanoma was over 100 µM in each case. In the test with HT29 colon, this compound came in with a TGI of over 100 µM.
